Measured values taken from patent US10221163B2 (priority 2015, dated 2019).
Read-outs that look alike come from different tables or passages of the source.

Key:
[1] = tested on: Pseudomonas aeruginosa efflux+ (MB9798), IMP-1; format: cell-based; settings: concentration restoring susceptibility to imipenem at 2 μg/mL in the presence of a class A, C, D serine β-lactamase inhibitor closely related to relebactam
In short: (§1)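 Microbroth MIC tests in PAO1-background strains with fixed imipenem and/or ceftazidime, usually at the CLSI breakpoint, plus fixed class A/C β-lactamase inhibitor against AmpC. MBL inhibitor titrated; concentration restoring susceptibility recorded and compared as fold difference between efflux+ MB9798 and efflux− MB9799.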

[2] = tested on: Pseudomonas aeruginosa MB9798 vs MB9799; settings: ratio MITC95 PA_9798/MITC95 PA_9799
In short: as §1

[3] = tested on: Pseudomonas aeruginosa efflux− (MB9799), IMP-1; format: cell-based; settings: concentration restoring susceptibility to imipenem at 2 μg/mL in the presence of a class A, C, D serine β-lactamase inhibitor closely related to relebactam
In short: as §1

VIM-1 = VIM-1 (Pseudomonas aeruginosa (strain ATCC 15692 / DSM 22644 / CIP 104116 / JCM 14847 / LMG 12228 / 1C / PRS 101 / PAO1), UniProt A0A0F7KYQ8); test: biochemical; settings: CCF2-FA substrate, 30 pM enzyme, 2 hours at 25° C.
In short: (§2)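 Class B activity is measured in the presence of compound by fluorescence with CCF2-FA after a 2-hour incubation at 25° C. IC50 is taken from a 4-parameter fit of semi-logarithmic dose-response data.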

[4] = tested on: Serratia marcescens expressing IMP-1 (CL5741); format: cell-based; settings: with imipenem 1 μg/ml; 95% inhibition of bacterial growth
In short: (§3)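 Clinical isolates (E. coli NDM-1, S. marcescens IMP-1, K. pneumoniae VIM-1) were diluted 1:100 from saline suspension into 1.1×CAMHB and exposed to test compound with imipenem at 1 μg/ml. Plates were incubated at 35° C for 22 hours to 24 hours, and growth was read by absorbance.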

[5] = tested on: Escherichia coli expressing NDM-1 (CLB30005, CLB30016); format: cell-based; settings: with imipenem 1 μg/ml; 95% inhibition of bacterial growth
In short: as §3

[6] = tested on: Klebsiella pneumoniae expressing VIM-1 (IHMA599644); format: cell-based; settings: with imipenem 1 μg/ml; 95% inhibition of bacterial growth
In short: as §3

IMP-1 = IMP-1 (Serratia marcescens, UniProt P52699); test: biochemical; format: biochemical; settings: fluorescence assay, CCF2-FA substrate, 2 pM enzyme, 2 hours at 25° C.; read-out: IMP-1 IC50
In short: as §2

NDM-1 = NDM-1 (Klebsiella pneumoniae, UniProt C7C422); test: biochemical; format: biochemical; settings: fluorescence assay, CCF2-FA substrate, 1 pM enzyme, 2 hours at 25° C.; read-out: NDM-1 IC50
In short: as §2

[7] = fluorescence assay, read-out: VIM-1 IC50

Sequence of IMP-1 (P52699 whole entry, looked up, species assumed): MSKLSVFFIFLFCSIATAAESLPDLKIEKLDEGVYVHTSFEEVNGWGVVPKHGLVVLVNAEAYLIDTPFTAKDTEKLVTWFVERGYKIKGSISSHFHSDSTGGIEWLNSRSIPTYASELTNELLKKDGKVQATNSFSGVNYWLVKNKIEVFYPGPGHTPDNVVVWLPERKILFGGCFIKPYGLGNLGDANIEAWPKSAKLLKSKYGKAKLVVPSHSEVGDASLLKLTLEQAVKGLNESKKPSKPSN
Sequence of NDM-1 (C7C422 whole entry, looked up, species assumed): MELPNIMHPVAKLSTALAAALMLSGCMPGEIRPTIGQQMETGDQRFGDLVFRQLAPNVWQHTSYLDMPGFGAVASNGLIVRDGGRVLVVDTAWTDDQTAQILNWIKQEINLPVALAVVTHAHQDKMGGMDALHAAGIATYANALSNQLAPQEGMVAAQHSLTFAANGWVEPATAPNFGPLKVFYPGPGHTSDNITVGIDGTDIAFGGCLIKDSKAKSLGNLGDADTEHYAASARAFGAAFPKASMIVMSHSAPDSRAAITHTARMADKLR

Structure (SMILES) | P. aeruginosa expressing IMP-1, efflux + (MB9798) MITC95 [1] [µM] | Efflux ratio [2] | P. aeruginosa expressing IMP-1, efflux − (MB9799) MITC95 [3] [µM] | IC50 (VIM-1; [7]) [nM] | Serratia marcescens expressing IMP-1 (CL5741) MITC95 [4] [µM] | Escherichia coli expressing NDM-1 (CLB30016) MITC95 [5] [µM] | Klebsiella pneumoniae expressing VIM-1 (IHMA599644) MITC95 [6] [µM] | IC50 (IMP-1) [nM] | IC50 (NDM-1) [nM] | IC50 (VIM-1; VIM-1 IC50, fluorescence assay) [nM]
NS(=O)(=O)c1c(S(=O)(=O)N[C@@H]2CCNC2)ccc(-c2cccc3[nH]cnc23)c1-c1nn[nH]n1 [Example 193, 4-(1H-benzo[d]imidazol-4-yl)-N1-((R)-pyrrolidin-3-yl)-3-(2H-tetrazol-5-yl)benzene-1,2-disulfonamide] | 0.7813 | 1.00 | 0.7813 | 0.113 | 1.563 | 1.563 | 2.344 | 0.211 | 0.0392 | 
Nc1ccc(-c2ccc(S(=O)(=O)N[C@@H]3CCNC3)c(S(N)(=O)=O)c2-c2nn[nH]n2)cn1 [Example 194, (R)-4-(6-aminopyridin-3-yl)-N^1-(pyrrolidin-3-yl)-3-(2H-tetrazol-5-yl)benzene-1,2-disulfonamide] | 0.6875 | 0.80 | 0.8542 | 0.123 | 0.5573 | 0.3203 | 2.229 | 0.242 | 0.105 | 
Nc1ccc(-c2ccc(S(=O)(=O)N[C@H]3CCNC3)c(S(N)(=O)=O)c2-c2nn[nH]n2)cn1 [Example 195, (S)-4-(6-aminopyridin-3-yl)-N^1-(pyrrolidin-3-yl)-3-(2H-tetrazol-5-yl)benzene-1,2-disulfonamide] | 0.7813 | 1.00 | 0.7813 | 0.182 | 0.5859 | 0.5859 | 1.563 | 0.523 | 0.169 | 
NCCNS(=O)(=O)c1ccc(-c2ccc(N)nc2)c(-c2nn[nH]n2)c1S(N)(=O)=O [Example 196, N^1-(2-aminoethyl)-4-(6-aminopyridin-3-yl)-3-(2H-tetrazol-5-yl)benzene-1,2-disulfonamide] | 0.7656 | 1.00 | 0.7656 | 0.218 | 0.2969 | 0.03125 | 1.336 | 0.479 | 0.328 | 
NS(=O)(=O)c1c(S(=O)(=O)N[C@H]2CCNC2)ccc(-c2cccc3[nH]cnc23)c1-c1nn[nH]n1 [Example 197] | 0.7813 | 1.00 | 0.7813 | 0.145 | 1.172 | 2.344 | 3.125 | 0.395 | 0.0764 | 
NCCCNS(=O)(=O)c1ccc(-c2cccc3[nH]cnc23)c(-c2nn[nH]n2)c1S(N)(=O)=O [Example 198, N^1-(3-aminopropyl)-4-(1H-benzo[d]imidazol-4-yl)-3-(2H-tetrazol-5-yl)benzene-1,2-disulfonamide] | 0.7813 | 1.00 | 0.7813 | 0.135 | 1.172 | 1.172 | 2.344 | 0.293 | 0.0592 | 
NCCNS(=O)(=O)c1ccc(-c2cccc3[nH]cnc23)c(-c2nn[nH]n2)c1S(N)(=O)=O [Example 199, N^1-(2-aminoethyl)-4-(1H-benzo[d]imidazol-4-yl)-3-(2H-tetrazol-5-yl)benzene-1,2-disulfonamide] | 0.7813 | 0.55 | 1.432 | 0.0471 | 1.042 | 1.042 | 2.865 | 0.102 | 0.0257 | 
NS(=O)(=O)c1c(S(=O)(=O)N[C@H]2C[C@H](N)C2)ccc(-c2cccc3[nH]cnc23)c1-c1nn[nH]n1 [Example 200, N^1-((1r,3r)-3-aminocyclobutyl)-4-(1H-benzo[d]imidazol-4-yl)-3-(2H-tetrazol-5-yl)benzene-1,2-disulfonamide] | 0.7813 | 1.00 | 0.7813 | 0.114 | 1.563 | 1.563 | 3.125 | 0.276 | 0.0527 | 
NC[C@@H](CO)NS(=O)(=O)c1ccc(-c2cccc3sc(N)nc23)c(-c2nnn[nH]2)c1S(N)(=O)=O [Example 201, (S)—N^1-(1-amino-3-hydroxypropan-2-yl)-4-(2-aminobenzo[d]thiazol-4-yl)-3-(1H-tetrazol-5-yl)benzene-1,2-disulfonamide] | 0.7813 | 0.50 | 1.563 |  | 1.563 | 1.563 | 3.125 | 0.109 | 0.0199 | 0.125
NC[C@H](CO)NS(=O)(=O)c1ccc(-c2cccc3sc(N)nc23)c(-c2nnn[nH]2)c1S(N)(=O)=O [Example 202, (R)—N^1-(1-amino-3-hydroxypropan-2-yl)-4-(2-aminobenzo[d]thiazol-4-yl)-3-(1H-tetrazol-5-yl)benzene-1,2-disulfonamide] | 1.563 | 1.00 | 1.563 |  | 1.563 | 3.125 | 3.125 | 0.713 | 0.124 | 0.328
NCCOCCNS(=O)(=O)c1ccc(-c2cccc3sc(N)nc23)c(-c2nnn[nH]2)c1S(N)(=O)=O [Example 203, 4-(2-aminobenzo[d]thiazol-4-yl)-N^1-(2-(2-aminoethoxy)ethyl)-3-(1H-tetrazol-5-yl)benzene-1,2-disulfonamide] | 0.7813 | 0.50 | 1.563 | 0.185 | 1.563 | 3.125 | 3.125 | 0.199 | 0.05 | 
